Experimental findings from patent US12202805B2, “Process for preparing (5S)-{[2-(4-carboxyphenyl)ethyl] |2-(2-{|3-chloro-4'-(trifluoromethyl)biphenyl-4-yl]methoxy}phenyl)ethyl]aminol-5,6,7,8-tetrahydroquinoline-2-carboxylic acid and its crystalline forms for use as pharmaceutically active compound” (Bayer Aktiengesellschaft, priority 2021, dated 2025) are described below.

In the data set the test system is Caco-2 cells. As to the kind of experiment: Caco-2 permeability test. In kind it is in vitro ADME, human. Particulars: 2 μM, 2 h at 37° C. The method, then:
E-3. Further Characterization E-3.1 Caco-2 Permeability Test
The in vitro permeation of a test compound across a Caco-2 cell monolayer is a well-established assay system to predict the permeability from the gastro-intestinal tract (1). The permeability of the compounds of the present invention in such Caco-2 cells was determined as described below:
Human caco-2 cells were seeded on 24-well insert plates and were allowed to grow for 14-16 days. For permeability studies, the test compounds were dissolved in DMSO and diluted to the final test concentration of 2 μM with transport buffer [Hanks' Buffered Salt Solution, Gibco/Invitrogen, further supplemented with glucose and HEPES]. For determination of the apical to basolateral permeability (PappA-B), the test compound solution was added to the apical side of the cell monolayer and transport buffer to the basolateral side of the monolayer; for determination of the basolateral to apical permeability (PappB-A), the test compound solution was added to the basolateral side of the cell monolayer and transport buffer to the apical side of the monolayer. Samples were taken from the donor compartment at the beginning of the experiment to confirm mass balance. After an incubation of 2 h at 37° C., samples were taken from both compartments. Samples were analyzed by LC-MS/MS, and the apparent permeability coefficients were calculated. Lucifer Yellow permeability was assayed for each cell monolayer to ensure cell monolayer integrity, and the permeability of Atenolol (low permeability marker) and Sulfasalazine (marker for active excretion) was determined for each batch as quality control.

With `O=C(O)c1ccc(CCN(CCc2ccccc2OCc2ccc(-c3ccc(C(F)(F)F)cc3)cc2Cl)[C@H]2CCCc3nc(C(=O)O)ccc32)cc1` [comparative example 11, (5S)-5-{[2-(4-carboxyphenyl)ethyl][2-(2-{[3-chloro-4′-(trifluoromethyl)[biphenyl]-4-yl]methoxy}phenyl)ethyl]amino}-5,6,7,8-tetrahydroquinoline-2-carboxylic acid], the efflux ratio result was “does not show an efflux ratio”.
